From patent publication US20220387405A1, “METHODS OF TREATMENT WITH N-((R)-1-(3-CHLOROPYRIDIN-2-YL)-2,2,2-TRIFLUOROETHYL)-2-((S)-2,6-DIOXOPIPERIDIN-3-YL)-1-OXOISOINDOLINE-5-CARBOXAMIDE” (CELGENE CORPORATION, priority 2021, published 2022)

What was measured:
[1] = tested on: TP53 WT AML cell lines; assay: Cell autonomous activity against TP53 WT AML cell lines; assay type: cell-based
Text: (§1) The remaining 5 cell lines were either medium-sensitive or completely resistant to Compound 1; the unresponsiveness to Compound 1 treatment was associated with inadequate accumulation of p53 protein and/or its transcriptional targets BAX and PUMA.

[2] = tested on: AML cell lines with TP53 loss or mutation; assay: Activity against AML cell lines with TP53 loss or mutation; assay type: cell-based
Text: as §1

[3] = tested on: MV-4-11-luc disseminated AML xenograft; assay: MV-4-11-luc disseminated AML xenograft model, tumor burden and survival; assay type: in vivo, mice
Method: The CK1α degradation activity and subsequent antitumor activity of Compound 1 in vivo was tested in two TP53 WT AML cell line-derived xenograft models. The depth and duration of CK1α degradation was dose-dependent.
In a subsequent study, MV-4-11-luc disseminated AML xenografts were treated with 2 cycles of fixed doses and varying dosing duration (5/28 days, 7/28 days and 14/28 days). […] In Kaplan-Meier survival analysis following cessation dosing, the median survival of the vehicle treated animals was 45.5 days. […] The median survival of animals treated with Compound 1 with 2 cycles of 7/28-days at 10, 30, and 50 mg/kg was 67.5 (p<0.0001), 70 (p<0.0001), and 70 (p<0.0001) days, respectively. For the animals treated with 2 cycles of 14/28-days at 3, 10 and 30 mg/kg was 69.5 (p<0.0001), 94.5 (p<0.0001) and 152 (p<0.0001) days, respectively. For 30 mg/kg with 14/28-day cycle, 4/10 animals remained tumor free at the termination of the study on day 154.

[4] = Cardiovascular assessment (ECG, heart rate) in conscious cynomolgus monkeys; assay type: in vivo; settings: oral gavage, 0.03-0.3 mg/kg, Regimens 1 and 2, 1 hour postdose
Method: Cardiovascular assessments (electrocardiograms [ECGs] and heart rates) were conducted in conscious cynomolgus monkeys as part of the Good Laboratory Practice (GLP)-compliant repeat dose toxicity study. In this study, Compound 1 was administered by oral gavage to Cynomolgus monkeys (5/sex/group) in Groups 1-5 at doses of 0 (0.5% (w/v) Methylcellulose, 0.25% (v/v) Tween 80 in 50 mM citrate buffer pH 3), 0.03, 0.1, 0.1 and 0.3 mg/kg, respectively, intermittently using 2 different dosing regimens. Groups 2 and 3 animals were dosed for 7 consecutive days in each 4-week cycle for 2 cycles (Regimen 1: on Days 1-7 and 29-35), whereas Groups 4 and 5 animals were dosed twice weekly for 4 weeks (Regimen 2: on Days 1, 4, 8, 11, 15, 18, 22 and 25). A combination of both dosing regimens (Days 1-7, 8, 11, 15, 18, 22, 25, and 29-35) was used for administration of the vehicle to the control animals. […] Qualitative (visual inspection) and quantitative assessments including heart rates and PR, QRS, RR, QT, and QTc intervals were performed. QTc was calculated using Bazett's formula.

[5] = biological target: T1, cloned hERG potassium channel expressed in the HEK-293 cell line (Homo sapiens, UniProt Q12809); assay: hERG IonWorks Barracuda patch clamp electrophysiology assay; assay type: cell-based
T1 construct: expressed in transfected cells; host or cells: HEK-293
Method: (§2) The effect of Compound 1 on the cloned hERG potassium channel expressed in the HEK-293 cell line was also investigated. […] The percent inhibition at 30 μM was 19%.

[6] = biological target: T2, hERG potassium channel (Homo sapiens, UniProt Q12809); assay: as above; assay type: cell-based; settings: human, HEK-293 cells expressing cloned hERG potassium channel; at 30 μM; read-out: percent inhibition
T2 construct: expressed in transfected cells; host or cells: HEK-293
Method: as §2

[7] = Plasma protein binding; assay type: in vitro ADME, human and nonclinical species
Text: There was no marked difference in free fraction among human, rat and monkey. Over the concentration ranges tested (25- to 50-fold range) in each species, there was <2-fold change in free fraction.

[8] = tested on: CYP3A4/5; assay: Enzymatic metabolism (enzyme identification); assay type: in vitro ADME
Text: Compound 1 underwent non-enzymatic hydrolysis, oxidation, N-dealkylation, glucuronidation and a combination of these pathways in hepatocytes of human and animal species. Although there were quantitative differences in the formation of Compound 1 metabolites across species, qualitatively all metabolites formed in human hepatocytes were also observed in hepatocytes and plasma of rats and/or monkeys, the two species used for nonclinical safety testing. Following multiple oral administrations of Compound 1 to rats and monkeys, Compound 1 was the predominant component in plasma of both species. The metabolites observed in plasma were similar to those observed in hepatocytes.

[9] = biological target: T3, CYP2C8 (Homo sapiens, UniProt P10632); assay: CYP inhibition in human liver microsomes, CYP2C8; assay type: in vitro ADME
T3 construct: In human liver microsomes; from tissue; host or cells: human liver microsomes

[10] = tested on: Salmonella typhimurium strains (TA1535, TA1537, TA98, TA100); assay: Bacterial reverse mutation test, Salmonella typhimurium; assay type: cell-based
Method: Compound 1 was tested in Salmonella typhimurium strains (TA1535, TA1537, TA98, TA100) and Escherichia coli strain WP2 uvrA at a range of concentrations up to 5000 μg/plate (the standard limit concentration for this assay), in the presence and absence of a supplemented rat liver fraction (S9 mix), using the plate incorporation version of the bacterial reverse mutation test. Dimethyl sulfoxide (DMSO) was used as the solvent.
The mean revertant colony counts for the negative controls were within the laboratory historical control range. Bacteria were also incubated with standard positive controls, and the response of the various bacterial strains to these agents confirmed the sensitivity of the test system and the activity of the S9 mix. Therefore, the results from both the negative and positive controls confirmed the validity of the assay.
No substantial increases in revertant colony numbers were obtained with any of the tester strains, following exposure to Compound 1 at any concentration, in either the presence or absence of S9 mix. Therefore, Compound 1 was considered to be negative for the induction of mutagenicity in this in vitro assay.

T3 sequence (P10632 whole entry): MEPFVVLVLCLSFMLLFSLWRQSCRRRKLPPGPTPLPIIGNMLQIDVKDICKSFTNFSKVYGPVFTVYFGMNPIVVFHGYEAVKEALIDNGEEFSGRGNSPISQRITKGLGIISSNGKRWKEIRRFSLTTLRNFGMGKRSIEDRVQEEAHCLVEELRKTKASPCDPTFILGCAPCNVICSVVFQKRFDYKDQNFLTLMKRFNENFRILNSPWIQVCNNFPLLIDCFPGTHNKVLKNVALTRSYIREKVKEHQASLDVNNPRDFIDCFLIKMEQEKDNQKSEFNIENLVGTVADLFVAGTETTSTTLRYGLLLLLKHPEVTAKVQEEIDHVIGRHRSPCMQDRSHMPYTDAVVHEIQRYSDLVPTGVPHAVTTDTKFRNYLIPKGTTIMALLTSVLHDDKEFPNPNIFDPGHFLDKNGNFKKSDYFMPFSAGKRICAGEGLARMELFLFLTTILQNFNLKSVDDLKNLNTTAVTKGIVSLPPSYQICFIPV
T1 sequence (Q12809 whole entry): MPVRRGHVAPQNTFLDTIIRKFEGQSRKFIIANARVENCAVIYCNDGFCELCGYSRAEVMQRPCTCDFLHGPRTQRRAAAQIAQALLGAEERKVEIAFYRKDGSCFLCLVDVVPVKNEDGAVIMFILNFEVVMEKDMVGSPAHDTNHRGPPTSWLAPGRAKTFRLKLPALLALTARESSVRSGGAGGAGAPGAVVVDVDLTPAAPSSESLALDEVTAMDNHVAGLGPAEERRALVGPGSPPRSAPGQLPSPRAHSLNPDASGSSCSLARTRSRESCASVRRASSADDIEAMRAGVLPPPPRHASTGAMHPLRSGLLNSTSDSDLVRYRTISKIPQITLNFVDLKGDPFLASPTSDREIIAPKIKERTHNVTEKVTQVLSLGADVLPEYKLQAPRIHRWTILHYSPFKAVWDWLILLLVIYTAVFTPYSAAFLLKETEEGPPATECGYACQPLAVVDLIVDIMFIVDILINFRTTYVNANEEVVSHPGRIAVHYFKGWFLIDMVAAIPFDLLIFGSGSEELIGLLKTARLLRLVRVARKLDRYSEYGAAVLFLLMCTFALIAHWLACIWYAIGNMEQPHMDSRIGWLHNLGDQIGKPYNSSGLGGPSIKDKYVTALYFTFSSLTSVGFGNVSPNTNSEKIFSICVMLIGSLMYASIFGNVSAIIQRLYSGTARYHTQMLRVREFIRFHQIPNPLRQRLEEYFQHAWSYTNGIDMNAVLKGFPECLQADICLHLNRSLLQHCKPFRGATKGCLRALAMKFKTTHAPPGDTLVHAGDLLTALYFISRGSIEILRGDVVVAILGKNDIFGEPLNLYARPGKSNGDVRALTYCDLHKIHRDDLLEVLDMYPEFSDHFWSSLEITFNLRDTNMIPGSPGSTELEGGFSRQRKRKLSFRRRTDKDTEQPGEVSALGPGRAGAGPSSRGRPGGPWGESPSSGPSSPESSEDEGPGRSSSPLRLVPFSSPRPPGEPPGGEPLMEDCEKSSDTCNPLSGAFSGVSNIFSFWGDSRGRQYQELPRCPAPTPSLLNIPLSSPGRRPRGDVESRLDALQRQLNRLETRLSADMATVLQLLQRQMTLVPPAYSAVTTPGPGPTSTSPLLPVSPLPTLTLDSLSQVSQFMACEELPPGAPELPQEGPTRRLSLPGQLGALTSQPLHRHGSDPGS
T2 sequence (Q12809 whole entry): as above

Structure (SMILES): O=C1CC[C@H](N2Cc3cc(C(=O)N[C@H](c4ncccc4Cl)C(F)(F)F)ccc3C2=O)C(=O)N1 [Compound 1, N-((R)-1-(3-chloropyridin-2-yl)-2,2,2-trifluoroethyl)-2-((S)-2,6-dioxopiperidin-3-yl)-1-oxoisoindoline-5-carboxamide]
- number of cell lines sensitive to Compound 1 ([1]; of the 13 TP53 WT AML cell lines tested): 8
- IC50 ([1]; the 8 sensitive of 13 TP53 WT AML cell lines tested): 0.015 to 0.5 µM
- sensitivity to treatment [2]: insensitive
- animals remaining tumor free at termination of the study ([3]; 30 mg/kg, 14/28-day cycle, day 154): 4/10
- median survival ([3]; 2 cycles of 5/28-days at 50 mg/kg, vehicle 45.5 days): 68.5 days
- median survival ([3]; 2 cycles of 7/28-days at 10 mg/kg): 67.5 days
- median survival ([3]; 2 cycles of 7/28-days at 30 mg/kg): 70 days
- median survival ([3]; 2 cycles of 7/28-days at 50 mg/kg): 70 days
- median survival ([3]; 2 cycles of 14/28-days at 3 mg/kg): 69.5 days
- median survival ([3]; 2 cycles of 14/28-days at 10 mg/kg): 94.5 days
- median survival ([3]; 2 cycles of 14/28-days at 30 mg/kg): 152 days
- tumor burden ([3]; mice with disseminated MV-4-11 AML, dose-, schedule- and duration-dependent): significantly reduced
- effects on heart rate, PR, QRS, QT, and QTc intervals [4]: no Compound 1 related effects
- precipitation in the assay ([5]; concentrations up to 30 μM): did not precipitate
- IC50 ([5]; hERG, IonWorks Barracuda patch clamp): > 30 µM
- inhibition at 30 µM [6]: 19%
- change in free fraction ([7]; over the concentration ranges tested (25- to 50-fold range) in each species): < 2 fold
- fraction unbound ([7]; plasma, human and nonclinical species): 0.007 to 0.103
- enzymatic metabolism [8]: primarily mediated by CYP3A4/5
- time-dependent inhibition ([9]; CYP2C8, 30-minute preincubation with NADPH): not a time-dependent inhibition
- IC50 ([9]; human liver microsomes, CYP2C8): > 30 µM
- toxicity to the bacteria ([10]; highest concentrations tested): non-toxic
- induction of mutagenicity (revertant colony numbers) ([10]; up to 5000 μg/plate, presence and absence of S9 mix): negative
